Assay results: article PMC7476565 (Antiviral Research, 2020)

Legend:
CRFK cells = experiment: In vitro cytotoxicity MTS assay on CRFK cells; type: cell-based, feline; conditions: read-out: 50% cytotoxic concentration CC50, MTS assay
[1] = In vitro cytotoxicity MTS assay on CRFK cells; type: cell-based, feline; conditions: cat, 50% cytotoxic concentration CC50, MTS assay
FIPV [2] = experiment: microbe, parasite or virus in culture; type: cell-based, feline infectious peritonitis virus (FIPV) strain 79-1146; conditions: for EC50: Alphacoronavirus 1, CRFK, 2 h, read-out: Prophylaxis treatment EC50, IPMA; for inhibition of the cytopathic effect (in words): FIPV in CRFK cells, all examined conditions
FIPV 3CL^pro = FIPV 3CL^pro (Feline coronavirus, UniProt Q98VG9); experiment: FRET protease inhibition assay, FIPV 3CLpro; type: biochemical, feline infectious peritonitis virus (FIPV) strain 79-1146
FIPV [3] = experiment: FIPV RNA quantification by RT-qPCR in CRFK cells; type: cell-based, feline infectious peritonitis virus (FIPV) strain 79-1146; conditions: with higher concentration
TGEV = experiment: Antiviral activity against TGEV replication in SK6 cells
FIPV [4] = conditions: CRFK cells; CPE still observed; ref Weiss and Oostrom-Ram, 1989; cited from earlier work

Chain of FIPV 3CL^pro (Q98VG9 2904-3205 limits assumed): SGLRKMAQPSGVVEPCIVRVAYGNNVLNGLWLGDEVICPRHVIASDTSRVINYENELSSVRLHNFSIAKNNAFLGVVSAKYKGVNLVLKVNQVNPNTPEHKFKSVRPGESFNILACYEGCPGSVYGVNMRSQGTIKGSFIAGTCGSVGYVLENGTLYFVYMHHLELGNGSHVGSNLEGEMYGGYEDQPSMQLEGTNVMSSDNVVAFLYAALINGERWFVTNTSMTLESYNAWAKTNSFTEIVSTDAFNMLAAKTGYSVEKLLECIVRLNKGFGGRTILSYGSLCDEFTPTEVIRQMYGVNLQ

Row | SMILES | CC50 (CRFK cells) | CC50 [1] | EC50 (FIPV [2]) | Ki (FIPV 3CL^pro) | inhibition of the cytopathic effect (in words) (FIPV [2]) | copy numbers of FIPV RNAs / FIPV replication (RT-qPCR) (FIPV [3]) | antiviral effect in TGEV cell-based assay (in words) (TGEV) | Inhibitory dose for FIPV (FIPV [4])
1 | CC(C)C[C@H](NC(=O)OCc1ccccc1)C(=O)N[C@@H](CC1CCNC1=O)C(O)S(=O)(=O)O (stereo partly drawn) [GC376, reference compound] | > 200 µM |  |  |  |  |  |  | 
2 | Cc1cccc(C)c1OCC(=O)N[C@@H](Cc1ccccc1)[C@@H](O)C[C@H](Cc1ccccc1)NC(=O)[C@H](C(C)C)N1CCCNC1=O [Lopinavir, reference compound] |  | > 100 µM | 33.7 ± 1.53 µM |  |  |  |  | 
3 | O=C(C=Cc1ccc2ccccc2n1)c1cc(Cl)ccc1O [NSC71097, 1-(5-chloro-2-hydroxyphenyl)-3-(2-quinolinyl)-2-propen-1-one] |  | 68.5 ± 4.82 µM | 1.99 ± 0.3 µM | 15.2 ± 1.76 µM | strongly inhibit | reduced replication |  | 
4 | O=C(Nc1ccc(F)cc1)Oc1ccc[nH]c1=O [NSC282187, Carbamic acid, (4-fluorophenyl)-, 1,2-dihydro-2-oxo-3-pyridinyl ester] |  | 510.7 ± 0.13 µM | > 200 µM | 2.04 ± 0.08 µM |  |  | did not show an active antiviral effect | 
5 | N#CC1(C#N)C2C=CC(c3coc4cccc2c34)C1(C#N)C#N (stereo not drawn) [NSC629301, 3,6-dihydro-3,6-ethanocyclohepta (cd) (1) benzofuran-10,10,11,11-tetracarbonitrile] | 23.2 ± 5.19 µM | 28.1 ± 5.19 µM | 6.11 ± 1.9 µM | 9.39 ± 0.53 µM | strongly inhibit | reduced replication |  | 
6 | NC(=O)c1ncn([C@@H]2O[C@H](CO)[C@@H](O)[C@H]2O)n1 [Ribavirin, reference compound] |  | > 500 µM | > 200 µM |  |  |  |  | 50 to 100 µg/mL
